The assay addresses T1, 3-oxoacyl-[acyl-carrier-protein] synthase 3 (Mycobacterium tuberculosis (strain ATCC 25618 / H37Rv), UniProt P9WNG3).
T1 sequence (P9WNG3 whole entry): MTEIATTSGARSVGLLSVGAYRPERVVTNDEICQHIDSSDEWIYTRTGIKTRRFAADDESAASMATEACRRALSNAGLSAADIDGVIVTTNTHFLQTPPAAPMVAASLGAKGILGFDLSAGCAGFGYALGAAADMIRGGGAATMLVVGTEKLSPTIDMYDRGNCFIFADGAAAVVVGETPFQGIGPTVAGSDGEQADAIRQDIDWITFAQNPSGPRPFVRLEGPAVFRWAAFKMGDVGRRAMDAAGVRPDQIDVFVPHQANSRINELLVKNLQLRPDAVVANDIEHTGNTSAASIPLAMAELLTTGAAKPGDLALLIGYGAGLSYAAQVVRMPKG
Put plainly: ChEBML_37595. From the text: In vitro inhibitory activity against the recombinant Mycobacterium tuberculosis Beta-ketoacyl-ACP synthase III mtFabH condensing enzyme.

Structures are written as SMILES.

As a reminder, the IC50 is the concentration that gives 50% inhibition. High values mean a need for much substance, low ones inhibition by little substance. `CC1C(=O)SC(C)(Cc2cccc(Oc3ccccc3)c2)C1=O` (configuration not stated) [4-Hydroxy-3,5-dimethyl-5-(3-phenoxy-benzyl)-5H-thiophen-2-one] yielded a half-inhibitory concentration (IC50) of 52 µM.
Next, `Cc1ccc(-c2ccc(CC3(C)SC(=O)C(C)C3=O)cc2)cc1` (configuration not stated) [4-Hydroxy-3,5-dimethyl-5-(4'-methyl-biphenyl-4-ylmethyl)-5H-thiophen-2-one]: 52 µM.

For the origin of these results see BindingDB's records for doi:10.1016/j.bmcl.2003.08.015 (The University of Birmingham, 2003).
